Earlier results on two compounds are cited in paper PMC3618595 (Pharmaceutical research, 2013).

The target of one data set is T1, hASBT (Homo sapiens, UniProt Q12908).
T1 sequence (Q12908 1-348): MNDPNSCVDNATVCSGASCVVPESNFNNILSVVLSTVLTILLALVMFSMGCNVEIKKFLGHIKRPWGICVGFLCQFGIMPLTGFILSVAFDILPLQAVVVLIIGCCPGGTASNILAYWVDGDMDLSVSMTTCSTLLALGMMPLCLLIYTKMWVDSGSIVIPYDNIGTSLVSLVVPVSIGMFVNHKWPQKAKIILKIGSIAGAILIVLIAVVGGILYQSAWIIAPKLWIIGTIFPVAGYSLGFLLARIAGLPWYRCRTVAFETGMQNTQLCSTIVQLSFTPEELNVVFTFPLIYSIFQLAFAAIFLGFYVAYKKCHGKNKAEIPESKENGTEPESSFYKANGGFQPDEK
The note with it: taurocholate; cited from earlier work.

The conditions of data set [1]: cited from earlier work.
The test system of another data set is plasma proteins. The note with it: cited from earlier work.

For `C[C@H](CCC(=O)NCCS(=O)(=O)O)[C@H]1CC[C@H]2[C@@H]3[C@H](O)C[C@@H]4C[C@H](O)CC[C@]4(C)[C@H]3C[C@H](O)[C@]12C` [taurocholate], the Km (commonly the substrate concentration at which the rate is half of its maximum) at hASBT is 4.39 µM.

With `C[C@H](CCC(=O)O)[C@H]1CC[C@H]2[C@@H]3[C@H](O)C[C@@H]4C[C@H](O)CC[C@]4(C)[C@H]3CC[C@]12C` [chenodeoxycholic acid], in data set [1], the Octanol/water partition coefficient was 23.3. Also, the “Binding to plasma proteins” value with plasma proteins is on record as 96.2%.
